From patent US7799829B2, “Acyloxyalkyl carbamate prodrugs of α-amino acids, methods of synthesis and use” (XenoPort, Inc., priority 2006, dated 2010)

Columns and labels:
[1] = Bioavailability of α-amino acid following intracolonic administration of prodrugs in rats (intravenous α-amino acid as reference); assay type: in vivo; settings: for colonic bioavailability of 1-aminocyclopropanecarboxylic acid: intracolonic administration of prodrug, 1-aminocyclopropanecarboxylic acid released post absorption
Procedure: Rats are obtained commercially and were pre-cannulated in the both the ascending colon and the jugular vein. Animals were conscious at the time of the experiment. All animals were fasted overnight and until 4 hours after dosing of an α-amino acid prodrug. An α-amino acid or the corresponding prodrug was administered as a solution (in water) directly into the colon via the cannula at a dose equivalent to about 75 mg or other appropriate dose of an α-amino acid per kg body weight. Blood samples (0.3 mL) were obtained from the jugular cannula at intervals over 8 hours and were quenched immediately by addition of sodium metabisulfite to prevent oxidation of the α-amino acid. Blood was then further quenched with methanol/perchloric acid to prevent hydrolysis of the prodrug. Blood samples were analyzed as described.
300 μL of methanol was added to 1.5 mL tubes. Rat or monkey blood (100 μL) was collected at different times into the tubes and vortexed to mix. 90 μL of blood was quenched with 300 μL methanol. 10 μL of a standard stock solution containing an α-amino acid (0.04, 0.2, 1, 5, 25, and 100 μg/mL) and 20 μL of p-chlorophenylalanine eas added to 90 μL of blood to make up a final calibration standard (0.004, 0.02, 0.1, 0.5, 2.5, and 10 μg/mL). Samples were vortexed and centrifuged at 3400 rpm for 20 min. The supernatant was analyzed by LC/MS/MS.
An API 4000 LC/MS/MS spectrometer equipped with Agilent 1100 binary pumps and a CTC HTS-PAL autosampler and an Agilent Zorbax Eclipse XBD-C8, 4.6×150 mm, 3.5 μM column was used for the analysis. The mobile phase was 0.02% heptafluorobutyric acid in water (A) and 0.02% heptafluorobutyric acid in acetonitrile (B). The flow rate was 1.0 mL/min. The gradient condition was: 5% B for 2 min, then to 10% B for 1 min. Then the mobile phase was returned to 5% B for 1.1 min. A TurboIonSpray source was used in the API 4000. The analysis was done in either negative ion mode or positive ion mode as appropriate and the MRM transition for each analyte was optimized using a standard solution. 20 μL of the samples were injected. Non-compartmental analysis was performed using WinNonlin software (v.3.1 Professional Version, Pharsight Corporation, Mountain View, Calif.) on individual animal profiles. Summary statistics on major parameter estimates was performed for Cmax (peak observed concentration following dosing), Tmax (time to maximum concentration is the time at which the peak concentration was observed), AUC(0-t) (area under the plasma concentration-time curve from time zero to last collection time, estimated using the log-linear trapezoidal method), AUC(0-∞), (area under the plasma concentration time curve from time zero to infinity, estimated using the log-linear trapezoidal method to the last collection time with extrapolation to infinity), and t1/2,z (terminal half-life).
The oral or intracolonic bioavailability (F) of an α-amino acid was determined by comparing the area under the α-amino acid concentration vs. time curve (AUC) following oral or intracolonic administration of α-amino acid or prodrug thereof with the AUC of the α-amino acid concentration vs. time curve following intravenous administration of the α-amino acid on a dose normalized basis (e.g., % Fic=AUC (following intracolonic administration of an α-amino acid prodrug)/AUC (following intravenous administration of an equivalent dose of the corresponding α-amino acid)). […] In monkeys, following, colonic administration of α-amino acid prodrug 2, the bioavailability of 1-aminocyclopropanecarboxylic acid was determined to be about 4-fold greater than after colonic administration of 1-aminocyclopropanecarboxylic acid itself (at 20 mg-eq/kg).

Row | SMILES | AUC(0-inf) ([1]; rat, whole blood, intravenous, dosed at 20 mg-eq/kg, used as reference for bioavailability calculations, read-out: AUCinf for the intravenously administered α-amino acid) [ng·h/mL] | colonic bioavailability of 1-aminocyclopropanecarboxylic acid [1] | melting point [°C]
1 | NC1(C(=O)O)CC1 [1-aminocyclopropanecarboxylic acid, reference compound] | 85900 | – | –
2 | CC(C)C(OC(=O)NC1(C(=O)O)CC1)OC(=O)C1CCCCC1 (stereo not drawn) [Compound 11, 1-[(1-Cyclohexylcarbonyloxy-2-methylpropoxy)carbonylamino]cyclopropanecarboxylic Acid] | – | substantial | 156 to 158.5
3 | O=C(NC1(C(=O)O)CC1)OCCOC(=O)c1ccccc1 [Compound 4, 1-[(Phenylcarbonyloxyethoxy)carbonylamino]cyclopropanecarboxylic Acid] | – | substantial | 173.8 to 175.8
4 | CC(OC(=O)NC1(C(=O)O)CC1)OC(=O)C(C)C (stereo not drawn) [Compound 1, 1-(1-Isobutyryloxy-ethoxycarbonylamino)-cyclopropanecarboxylic Acid] | – | – | 127 to 129.5
5 | CC(C)C(OC(=O)NC1(C(=O)O)CC1)OC(=O)c1ccccc1 (stereo not drawn) [Compound 12, 1-[(2-Methyl-1-phenylcarbonyloxypropoxy)carbonylamino]cyclopropanecarboxylic Acid] | – | substantial | –
6 | O=C(/C=C/c1ccccc1)OCCOC(=O)NC1(C(=O)O)CC1 [Compound 16, 1-{[((2E)-3-Phenylprop-2-enoyloxy)ethoxy]carbonylamino}cyclopropanecarboxylic Acid] | – | substantial | 169.3 to 172.2
7 | CCCC(=O)OC(C)OC(=O)NC1(C(=O)O)CC1 (stereo not drawn) [Compound 7, 1-(1-Butyryloxy-ethoxycarbonylamino)-cyclopropanecarboxylic Acid] | – | – | 90.4 to 93.4
8 | CC(C)C(=O)OC(OC(=O)NC1(C(=O)[O-])CC1)C(C)C.[Na+] (stereo not drawn) [Compound 23, 1-{[2-Methyl-1-(2-methylpropanoyloxy)propoxy]carbonylamino}Sodium Cyclopropanoate] | – | substantial | –
9 | CCCCC(=O)OC(C)OC(=O)NC1(C(=O)O)CC1 (stereo not drawn) [Compound 8, 1-(1-Pentanoyloxy-ethoxycarbonylamino)-cyclopropanecarboxylic Acid] | – | – | 148 to 151.1
10 | O=C(Cc1ccccc1)OCCOC(=O)NC1(C(=O)O)CC1 | – | – | 142.1 to 145.6
11 | O=C(NC1(C(=O)O)CC1)OCCOC(=O)C1CCCCC1 [Compound 10, 1-[(Cyclohexylcarbonyloxyethoxy)carbonylamino]cyclopropanecarboxylic Acid] | – | – | 123.6 to 125.3
12 | Cc1ccc(C(=O)OCCOC(=O)NC2(C(=O)O)CC2)cc1 [Compound 21, 1-{[(4-Methylphenylcarbonyloxy)ethoxy]carbonylamino}cyclopropanecarboxylic Acid] | – | – | 177.7 to 182.5
13 | CCCCCCC(=O)OCCOC(=O)NC1(C(=O)O)CC1 [Compound 13, 1-[(Heptanoyloxyethoxy)carbonylamino]cyclopropanecarboxylic Acid] | – | – | 112.6 to 113.2
14 | CC(C)C(=O)OC(OC(=O)NC1(C(=O)O)CC1)C(C)C (stereo not drawn) [Compound 2, 1-(1-Isobutyryloxy-2-methyl-propoxycarbonylamino)-cyclopropanecarboxylic Acid] | – | substantial | 127.4 to 129
15 | COc1ccc(C(=O)OCCOC(=O)NC2(C(=O)O)CC2)cc1OC [Compound 14, 1-{[(3,4-Dimethoxyphenylcarbonyloxy)ethoxy]carbonylamino}cyclopropanecarboxylic Acid] | – | – | 171.8 to 173.6
16 | CC(C)CC(=O)OC(C)OC(=O)NC1(C(=O)O)CC1 (stereo not drawn) [Compound 5, 1-[1-(3-Methyl-butyryloxy)-ethoxycarbonylamino]-cyclopropanecarboxylic Acid] | – | – | 116.6 to 119.1
17 | Cc1ccccc1C(=O)OCCOC(=O)NC1(C(=O)O)CC1 [Compound 3, 1-{[(2-Methylphenylcarbonyloxy)ethoxy]carbonylamino}cyclopropanecarboxylic Acid] | – | substantial | –
18 | O=C(CCc1ccccc1)OCCOC(=O)NC1(C(=O)O)CC1 [Compound 17, 1-{[(3-Phenylpropanoyloxy)ethoxy]carbonylamino}cyclopropanecarboxylic Acid] | – | – | 132.9 to 134.4
19 | CC(C)C(OC(=O)/C=C/c1ccccc1)OC(=O)NC1(C(=O)O)CC1 (stereo not drawn) [Compound 18, 1-{[1-((2E)-3-Phenylprop-2-enoyloxy)-2-methylpropoxy]carbonylamino}cyclopropanecarboxylic Acid] | – | substantial | 147.8 to 150.2
